According to patent US8357375B2, “Process for the preparation and use of a bivalent vaccine against morphine-heroine addiction” (Instituto Nacional de Psiquiatria Ramon de la Fuente Muniz, priority 2004, dated 2013):

Tested on: anti-morphine-heroin serum antibodies
Experiment: competitive immunoenzymatic ELISA for antibody specificity
Assay type: binding, rat
Conditions: competitive antigen, nM-μM range

Compound | cross-recognition by anti-morphine-heroin serum antibodies
β-endorphin (YGGFMTSEKSQTPLVTLFKNAIIKNAYKKGE; Beta-endorphin; UniProt P01189 237-267, looked up) [endogenous opioid peptide produced in the CNS of mammals] | not able to cross-recognize
CN1CC[C@]23c4c5ccc(O)c4O[C@H]2[C@@H](O[C@@H]2O[C@H](C(=O)O)[C@@H](O)[C@H](O)[C@H]2O)C=C[C@H]3[C@H]1C5 [morphine-6-glucuronide] | cross-recognize
O=C1CC[C@@]2(O)[C@H]3Cc4ccc(O)c5c4[C@@]2(CCN3CC2CC2)[C@H]1O5 [naltrexone] | no cross-recognition
CN1CC[C@]23c4c5ccc(O[C@@H]6O[C@H](C(=O)O)[C@@H](O)[C@H](O)[C@H]6O)c4O[C@H]2[C@@H](O)C=C[C@H]3[C@H]1C5 [morphine-3-glucuronide] | cross-recognize
